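Values below derive from 48-hour exposures of cells grown in 96-well plates, with endpoints linearly interpolated between the two concentrations bracketing the appropriate inhibition level. Here, GI50 denotes the concentration required for 50% inhibition of growth. The concentration for full growth arrest is given as TGI.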
How the values were obtained:
Assay in all cases: NCI tumour cell line growth inhibition, 48 h
CAKI-1 renal = test system: CAKI-1 renal
HS 578T breast = test system: HS 578T breast
SK-MEL-28 melanoma = test system: SK-MEL-28 melanoma
LOX IMVI melanoma = test system: LOX IMVI melanoma
MCF7 breast = test system: MCF7 breast
SK-OV-3 ovarian = test system: SK-OV-3 ovarian
OVCAR-4 ovarian = test system: OVCAR-4 ovarian
HCT-15 colon = test system: HCT-15 colon
A549 NSCLC = test system: A549 NSCLC
NCI-H226 lung = test system: NCI-H226 lung

Compound | GI50 (CAKI-1 renal) [µM] | TGI (CAKI-1 renal) [µM] | GI50 (HS 578T breast) [µM] | TGI (HS 578T breast) [µM] | GI50 (SK-MEL-28 melanoma) [µM] | TGI (SK-MEL-28 melanoma) [µM] | GI50 (LOX IMVI melanoma) [µM] | TGI (LOX IMVI melanoma) [µM] | GI50 (MCF7 breast) [µM] | TGI (MCF7 breast) [µM] | GI50 (SK-OV-3 ovarian) [µM] | TGI (SK-OV-3 ovarian) [µM] | GI50 (OVCAR-4 ovarian) [µM] | TGI (OVCAR-4 ovarian) [µM] | GI50 (HCT-15 colon) [µM] | TGI (HCT-15 colon) [µM] | GI50 (A549 NSCLC) [µM] | TGI (A549 NSCLC) [µM] | GI50 (NCI-H226 lung) [µM] | TGI (NCI-H226 lung) [µM]
COc1cc(C2=NOC(c3cc(OC)c(OC)c(OC)c3)C2)ccc1OCCCCOc1cc2c(cc1OC)C(=O)N1CCC[C@H]1C=N2 (some centres not stated) | 0.245 | 0.631 | 0.234 | 0.681 | 0.229 | 0.49 | 0.215 | 0.495 | 0.255 | 24.4 | 0.446 | 3.81 | 0.439 | 8.64 | 1.46 | 5.43 | 0.348 | 11.9 |  | 
CCC[CH2][Sn]([CH2]CCC)([O]C(=O)c1cccnc1SC)[O]C(=O)c1cccnc1SC |  |  |  |  | 0.722 | 2.02 | 0.302 | 1.37 |  |  | 2.36 | 5.83 | 1.62 | 3.06 | 1.04 | 2.3 | 6.7 | 20.6 | 0.883 | 2.18
CCCCN=C(NC#N)NCCCC |  | > 100 |  |  |  | > 100 |  |  |  |  |  | > 100 |  | > 100 |  | > 100 |  | > 100 |  | > 100
COC(=O)C1Cc2c(n(Cc3ccccc3)c3ccccc23)C(CCC(=O)O)N1C(C)C (configuration not stated) |  | > 100 |  |  |  | > 100 |  | > 100 |  |  |  | > 100 |  | > 100 |  | > 100 |  | > 100 |  | > 100
CCOC(=O)[C]1([Bi]([CH3])[CH3])N=NC(C(=O)OC)=C1C(=O)OC (configuration not stated) | 15.9 | 29.3 |  |  | 16.2 | 30.4 |  |  |  |  | > 100 | > 100 | 42.4 | > 100 | 20.7 | 49.6 | > 10 | > 10 | 20.6 | 41.4
O=c1c2cc([N+](=O)[O-])ccc2sc2ccsc12 |  |  |  |  |  | > 100 |  | > 100 |  |  |  | > 100 |  | > 100 |  | > 100 |  | > 100 |  | > 100
CCC(C)c1c(Cl)nc(Cl)nc1Cl (configuration not stated) |  |  |  | > 100 |  | 22.5 |  | > 100 |  | 22 |  | > 100 |  | 46.2 |  | 35.3 |  |  |  | 7.75
COC12C=C(C)C(CC1)CC2C(=O)O (configuration not stated) |  | > 100 |  |  |  | > 100 |  | > 100 |  |  |  | > 100 |  | > 100 |  | > 100 |  | > 100 |  | > 100
CC(=O)CNC(=O)OC(C)(C)C |  | > 100 |  |  |  | > 100 |  |  |  |  |  | > 100 |  | > 100 |  |  |  | > 100 |  | > 100
O=C(/C=C/c1c(O)ccc2ccccc12)c1cccc(O)c1 |  | > 100 |  |  |  | > 100 |  | > 72.1 |  |  |  | > 100 |  | > 100 |  | > 100 |  | > 100 |  | > 100
OCC(O)CC[CH2][Sn]([Br])([c]1ccccc1)[c]1ccccc1 (configuration not stated) | > 100 | > 100 |  |  |  |  | > 100 | > 100 |  |  | > 100 | > 100 | > 100 | > 100 | > 100 | > 100 | > 100 | > 100 | > 100 | > 100

From PubChem BioAssay (NCI)
